Test results from patent publication US20180264134A1, “A COMPOSITION OF GOLD NANOPARTICLES HAVING ANTIMICROBIAL PEPTIDES BOUND ON THEIR SURFACE FOR USE THE TREATMENT OF WOUND HEALING OR IN THE TREATMENT OF ISCHEMIC OR VASCULAR DISEASES OR IN THE TREATMENT OF SKIN DISORDERS” (priority 2015, published 2018).
Values joined by “and” are separate entries in the source; they are usually repeats but may differ in a detail not shown here. Equal values may be shown once.

Key:
[1] = test system: HUVECs; test: VEGF secretion in HUVECs (ELISA); type: cell-based, human; conditions: 24 h, LL37 5 μg/mL, NPs 200 μg/mL
Protocol: In an embodiment measurement of VEGF amount in HUVECs can be perform by the following method: HUVECs were seeded at a density of 4×10^4 cells/cm^2 in 24-well plates and cultured for 24 h in EGM-2 without VEGF. LL-37 (5 μg/mL), LL37 AUNPs and AuNPs (200 μg/mL) suspended in culture medium without VEGF at different concentrations were added to cells. LL-37 (5 μg/mL) and LL-37 AUNPs (200 μg/mL) were also incubated in the presence of 10 μM of FPRL1 Antagonist. After 24 h of incubation, cell media from all the conditions were collected and used to quantify VEGF amount in supernatants. In order to calculate the amount of VEGF in supernatants, Human VEGF ELISA development Kit (PeproTech) was used according to the manufacture's instructions. A calibration curve was used for the ranging between 0-1000 pg/mL VEGF.

[2] = test system: HaCaT cells; test: Whole-cell patch-clamp recordings of HaCaT cells; type: cell-based, human
Protocol: In an embodiment, the NP bioactivity was carried out as follows: electrophysiological recordings. Whole-cell patch-clamp recordings of HaCaT cells were performed using borosilicate glass patch pipettes with a resistance of 2-5 MΩ and compensating the series resistance by 50-60% with a List EPC-7 amplifier, as described previously^56. The pipettes were filled with (in mM): 135 K-gluconate, 10 CsCl, 0.4 NaH2PO4, 0.73 CaCl2, 1 MgCl2, 1 EGTA, and 14 HEPES (pH 7.4). The external solution contained (mM): 140 NaCl, 3 KCl, 2 CaCl2, 1 MgCl2, 15 HEPES and 10 glucose (pH 7.4). Cells were rapidly perfused as previously described and all experiments were carried out at RT (22-25° C.). The currents were recorded at −70 mV, filtered (2-pole Butterworth filter, −12 dB/octave) and digitized to a personal computer at a sampling rate of 1 kHz for analysis using pCLAMP software (AXON instruments). Charge transfer was calculated by the integration of the area under the current in the first 100 s (Q100) from the beginning of the exposure to Au NPs, LL37 or LL37-Au NPs in the absence or presence of apyrase (darker background; 20 U/mL; Sigma).

[3] = test system: full-thickness excisional wounds; test: In vivo wound healing, splinted mouse full thickness excisional model; parameters: species or system RjHan:NMRI female mice
Text: For measure some parameters In vivo wound healing and tissue collection can be use. 6-7 week old RjHan:NMRI female mice (Janvier, BE) were anesthesized with isoflurane and the dorsal area was shaved using a depilatory cream a day before the surgery. Two 0.5-mm-thick silicone (Grace biolabs, UK) donut-shaped splints (OD=20 mm, ID=10 mm) were fixed on either side of the dorsal midline, approximately 3.5 cm from the ears and positioned with 6-0 nylon sutures (Monosof, USA). Full-thickness excisional wounds were made using an 8 mm round skin biopsy punch (Kai Europe GMBH, DE), centered within each splint. […] Wound areas were quantified using the Jmicro Vision software developed by N. Roduit at University of Geneva, Switzerland. Wound sizes are expressed as percentage of the initial respective wound. […]
In an embodiment, histology and immunohistochemistry assay were conducted: the wound halves were immediately fixed with paraformaldehyde (4% in PBS, 0.01 M, pH 7.4) and after 24 h, the samples were transferred to PBS buffer at 4° C. […] A semi-quantitative estimation of MT green staining was performed using FRIDA software (developed by Johns Hopkins University, USA) and the staining values were expressed as staining per unit area. […]

CC[C@H](C)[C@H](NC(=O)[C@H](CCCCN)NC(=O)[C@H](CCC(=O)O)NC(=O)[C@H](CCCCN)NC(=O)[C@H](CO)NC(=O)[C@H](CCCCN)NC(=O)[C@H](CCCNC(=N)N)NC(=O)[C@H](Cc1ccccc1)NC(=O)[C@H](Cc1ccccc1)NC(=O)[C@H](CC(=O)O)NC(=O)CNC(=O)[C@H](CC(C)C)NC(=O)[C@@H](N)CC(C)C)C(=O)NCC(=O)N[C@@H](CCCCN)C(=O)N[C@@H](CCC(=O)O)C(=O)N[C@@H](Cc1ccccc1)C(=O)N[C@@H](CCCCN)C(=O)N[C@@H](CCCNC(=N)N)C(=O)N[C@H](C(=O)N[C@H](C(=O)N[C@@H](CCC(N)=O)C(=O)N[C@@H](CCCNC(=N)N)C(=O)N[C@H](C(=O)N[C@@H](CCCCN)C(=O)N[C@@H](CC(=O)O)C(=O)N[C@@H](Cc1ccccc1)C(=O)N[C@@H](CC(C)C)C(=O)N[C@@H](CCCNC(=N)N)C(=O)N[C@@H](CC(N)=O)C(=O)N[C@@H](CC(C)C)C(=O)N[C@H](C(=O)N1CCC[C@H]1C(=O)N[C@@H](CCCNC(=N)N)C(=O)N[C@H](C(=O)N[C@@H](CCC(=O)O)C(=O)N[C@@H](CO)C(=O)N[C@@H](CS)C(N)=O)[C@@H](C)O)C(C)C)[C@@H](C)CC)C(C)C)[C@@H](C)CC [LL37]
secretion of VEGF165 [1]: induce the secretion | effect of apyrase on charge transfer / inward current ([2]; apyrase 20 U/mL): no decrease | inward current ([2]; holding potential −70 mV): elicited an inward current | wound healing ([3]; after 10 days, LL37 70 μg per wound, listed as LL37 peptide): 50% and 70% | MPO activity in wound tissue ([3]; day 10): significantly decreased
